Data on 3 compounds can be found in patent US20200237905A1, “COMBINATION THERAPY WITH A BET INHIBITOR, A BCL-2 INHIBITOR AND AN ANTI-CD20 ANTIBODY” (Hoffmann-La Roche Inc., priority 2017, published 2020).

Experiment [1] has as its system WSU-DLCL2 xenografts (CD20+). As to the kind of experiment: In vivo antitumor efficacy against WSU-DLCL2 xenografts, obinutuzumab study (FIG. 1-2). Further details: species or system human. The settings on record: for median tumor volume: venetoclax 100 mg/kg, RG6146 30 mg/kg; for TGI % (tumor growth inhibition compared to control) / npTCR (non-parametric Treatment to Control Ratio) / Tumor free mice: Day 36; for TGI % (tumor growth inhibition compared to control): obinutuzumab 10 mg/kg once weekly; for Tumor free mice: tumor free mice / mice in group. On the procedure: (§1) Antibody buffer included histidine. Antibody solution was diluted appropriately in buffer from stock prior injections. BET inhibitor RG6146 was provided as powder from Roche, Basel, Switzerland and resuspended prior to use. Bcl-2 inhibitor GDC-0199 was provided by Genentech, South San Francisco, USA and formulated prior to use.
(§2) The original WSU-DLCL2 human B cell NHL cell line (DLBCL) was purchased from DSMZ (Braunschweig, Germany). Expansion of tumor cells for the transplantation was done by the TAP CompacT CellBase Cell Culture Roboter according to the protocol. Tumor cell line was routinely cultured in RPMI 1640 medium, FCS 10% and L-Glutamin 2 mM at 37° C. in a water-saturated atmosphere at 5% CO2. Culture passage was performed with trypsin/EDTA 1× splitting twice/week and passage 3 used for transplantation.
(§3) Female SCID beige mice, age 6-7 weeks at arrival, maintained under specific-pathogen-free condition with daily cycles of 12 h light/12 h darkness according to committed guidelines. Experimental study protocol was reviewed and approved by local government. After arrival animals were maintained in animal facility for one week to get accustomed to new environment and for observation. Continuous health monitoring was carried out on regular basis. Diet food and autoclaved water were provided ad libitum.
(§4) Animals were controlled daily for clinical symptoms and detection of adverse effects. For monitoring throughout the experiment body weight of animals was documented.
CD20 antibody obinutuzumab was administered as single agent and in combination at 10 mg/kg ip once weekly on days 10, 17, 24 and 31. The corresponding vehicle was administered on the same days. BET inhibitor RG6146 ip treatment at 30 mg/kg was done as single agent and in combination on days 10-18, 21-25 and 28-32. Finally, Bcl-2 inhibitor venetoclax (GDC-0199) was given orally at 100 mg/kg on days 10-18, 21-25 and 28-32 as single agent and in combination.
For the study shown in FIG. 1, WSU-DLCL2 human Diffuse Large B-cell Lymphoma (DLBCL) cells (CD20+) were s.c. inoculated with Matrigel onto female SCID beige mice. Tumor bearing mice were randomized 10 days later to the indicated study groups and compound treatment initiated. Tumor bearing animals were treated with vehicle control, with the BET inhibitor RG6146 at 30 mg/kg, with the anti-CD20 antibody obinutuzumab at 10 mg/kg or with Bcl-2 inhibitor venetoclax (GDC-0199) at 100 mg/kg as single agent. Additionally, three groups were treated with a dual combination of either RG6146 and venetoclax, or RG6146 and obinutuzumab or obinutuzumab and venetoclax. Finally, one study group received the triple combination of BET inhibitor RG6146, CD20 antibody obinutuzumab and Bcl-2 inhibitor venetoclax (GDC-0199). […] In constrast to this, the respective double combination regimens reached a tumor regrowth after about 20 days.

Experiment [2] has as its system WSU-DLCL2 xenografts (CD20+). Kind of experiment: In vivo antitumor efficacy against WSU-DLCL2 xenografts, rituximab study (FIG. 3). Details: species or system human. The settings on record: for median tumor volume / npTCR (non-parametric Treatment to Control Ratio) / Tumor free mice: rituximab 10 mg/kg; for median tumor volume: venetoclax 100 mg/kg, RG6146 30 mg/kg; for TGI % (tumor growth inhibition): rituximab 10 mg/kg once weekly, venetoclax 100 mg/kg po and RG6146 30 mg/kg ip days 11-17; for npTCR (non-parametric Treatment to Control Ratio) / Tumor free mice: venetoclax 100 mg/kg po, RG6146 30 mg/kg ip; for Tumor free mice: tumor free mice / mice in group. On the procedure: as §1, §2, §3, §4
The corresponding vehicle was administered on the same days. BET inhibitor RG6146 ip treatment at 30 mg/kg was done as single agent and in combination on days 11-17. Finally, bcl-2 inhibitor venetoclax (GDC-0199) was given orally at 100 mg/kg on days 11-17 as single agent and in combination.

The mark [3] stands for this setting: Day 10 (randomisation, start of treatment), s.c. xenograft in female SCID beige mice, obinutuzumab 10 mg/kg.
The mark [4] stands for this setting: Day 14, female SCID beige mice, obinutuzumab 10 mg/kg.
The mark [5] stands for this setting: Day 17, female SCID beige mice, obinutuzumab 10 mg/kg.
Where [6] appears, read: Day 21, female SCID beige mice, obinutuzumab 10 mg/kg.
Where [7] appears, read: Day 24, female SCID beige mice, obinutuzumab 10 mg/kg.
[8] abbreviates: Day 28, female SCID beige mice, obinutuzumab 10 mg/kg.
The mark [9] stands for this setting: Day 31, female SCID beige mice, obinutuzumab 10 mg/kg.
The mark [10] stands for this setting: Day 36 (treatment ended day 32), female SCID beige mice, obinutuzumab 10 mg/kg.
Where [11] appears, read: female SCID beige mice, venetoclax 100 mg/kg po, RG6146 30 mg/kg ip.
Setting [12] is: obinutuzumab 10 mg/kg, venetoclax 100 mg/kg po, RG6146 30 mg/kg ip.
Where [13] appears, read: Day 11, s.c. xenograft in female SCID beige mice.

For `Cc1sc2c(c1C)C(c1ccc(Cl)cc1)=N[C@@H](CC(=O)NCCCN1CCN(C)CC1)c1nnc(C)n1-2` [RG6146, 2-[(S)-4-(4-Chloro-phenyl)-2,3,9-trimethyl-6H-1-thia-5,7,8,9a-tetraaza-cyclopenta[e]azulen-6-yl]-N-[3-(4-methyl-piperazin-1-yl)-propyl]-acetamide], the median tumor volume in experiment [1] (setting [3]) was determined as 137 mm^3; in experiment [1] (setting [4]) it was 200 mm^3; in experiment [1] (setting [5]), 185 mm^3; in experiment [1] (setting [6]), 198 mm^3; in experiment [1] (setting [7]), 387 mm^3; in experiment [1] (setting [8]), 441 mm^3. Also, the median tumor volume is listed as 489 mm^3 in experiment [1] (setting [9]); 962 mm^3 in experiment [1] (setting [10]); 134 mm^3 in experiment [2] (setting [13]); 161 mm^3 in experiment [2] (Day 14, female SCID beige mice); 270 mm^3 in experiment [2] (Day 18, female SCID beige mice); 245 mm^3 in experiment [2] (Day 21, female SCID beige mice). Moreover, the median tumor volume in experiment [2] (Day 25, female SCID beige mice) is on record as 453 mm^3; in experiment [2] (Day 28, female SCID beige mice) it was 550 mm^3. Moreover, the “TGI % (tumor growth inhibition compared to control)” value in experiment [1] (setting [11]) is on record as 46%. In addition, the “npTCR (non-parametric Treatment to Control Ratio)” value is reported as 0.50 in experiment [1] (setting [12]) and 0.71 in experiment [2] (Day 28). Further, the Tumor free mice in experiment [1] (setting [12]) and in experiment [2] (Day 28) was 0/9 throughout. Moreover, the “TGI % (tumor growth inhibition)” value in experiment [2] (Day 28, female SCID beige mice) is recorded as 30%.
As to `CC1(C)CCC(CN2CCN(c3ccc(C(=O)NS(=O)(=O)c4ccc(NCC5CCOCC5)c([N+](=O)[O-])c4)c(Oc4cnc5[nH]ccc5c4)c3)CC2)=C(c2ccc(Cl)cc2)C1` [venetoclax, 4-(4-{[2-(4-chlorophenyl)-4,4-dimethylcyclohex-1-en-1-yl]methyl}piperazin-1-yl)-N-({3-nitro-4-[(tetrahydro-2H-pyran-4-ylmethyl)amino]phenyl}sulfonyl)-2-(1H-pyrrolo[2,3-b]pyridin-5-yloxy)benzamide], the median tumor volume in experiment [1] (setting [3]) was found to be 137 mm^3; in experiment [1] (setting [4]), 202 mm^3; in experiment [1] (setting [5]) it was 226 mm^3; in experiment [1] (setting [6]), 212 mm^3; in experiment [1] (setting [7]), 337 mm^3; in experiment [1] (setting [8]), 494 mm^3. For the same compound, the median tumor volume in experiment [1] (setting [9]) amounted to 565 mm^3; in experiment [1] (setting [10]) it was 906 mm^3; in experiment [2] (setting [13]) it was 136 mm^3; in experiment [2] (Day 14, female SCID beige mice) it was 162 mm^3; in experiment [2] (Day 18, female SCID beige mice), 267 mm^3; in experiment [2] (Day 21, female SCID beige mice), 388 mm^3. For the same compound, the median tumor volume was 497 mm^3 in experiment [2] (Day 25, female SCID beige mice) and 554 mm^3 in experiment [2] (Day 28, female SCID beige mice). Further, in experiment [1] (setting [11]), the “TGI % (tumor growth inhibition compared to control)” value is on record as 49%. In addition, the “npTCR (non-parametric Treatment to Control Ratio)” value in experiment [1] (setting [12]) is listed as 0.53; in experiment [2] (Day 28) it was 0.66. Besides, the Tumor free mice in experiment [1] (setting [12]) and in experiment [2] (Day 28) was 0/10 throughout. For the same compound, the “TGI % (tumor growth inhibition)” value in experiment [2] (Day 28, female SCID beige mice) is listed as 34%.
As for “obinutuzumab: Type II anti-CD20 antibody, synonymous for GA101, formerly known as afutuzumab”, the median tumor volume in experiment [1] (setting [3]) amounted to 136 mm^3; in experiment [1] (setting [4]), 131 mm^3; in experiment [1] (setting [5]), 112 mm^3; in experiment [1] (setting [6]) it was 110 mm^3; in experiment [1] (setting [7]) it was 111 mm^3; in experiment [1] (setting [8]), 124 mm^3. Besides, the median tumor volume in experiment [1] (setting [9]) is listed as 132 mm^3; in experiment [1] (setting [10]) it was 382 mm^3; in experiment [1] (Day 39 (follow-up after treatment), female SCID beige mice, obinutuzumab 10 mg/kg), 405 mm^3; in experiment [1] (Day 43 (follow-up after treatment), female SCID beige mice, obinutuzumab 10 mg/kg) it was 700 mm^3; in experiment [1] (Day 46 (follow-up after treatment), female SCID beige mice, obinutuzumab 10 mg/kg) it was 713 mm^3; in experiment [1] (Day 50 (follow-up after treatment), female SCID beige mice, obinutuzumab 10 mg/kg) it was 758 mm^3. Moreover, in experiment [1] (setting [11]), the “TGI % (tumor growth inhibition compared to control)” value was found to be 84%. The “npTCR (non-parametric Treatment to Control Ratio)” value in experiment [1] (setting [12]) is 0.20. Further, the Tumor free mice in experiment [1] (setting [12]) is on record as 0/10. Further, the “Tumor growth delay (Days): time until relative tumor volume reached again 100% (100% at beginning, Day 10)” value in experiment [1] (female SCID beige mice, obinutuzumab 10 mg/kg, venetoclax 100 mg/kg po, RG6146 30 mg/kg ip) worked out at 21 days.
